The test system of one series is HEp-2 tumors. Nature of the series: Electroporation therapy of HEp-2 tumors implanted subcutaneously in nude mice (intratumoral drug plus bipolar square pulses). Format: in vivo, BALB/c A nu/nu mice. The protocol: BALB/c A nu/nu mice were surgically implanted with HEp-2 tumors in a subcutaneous sac made in the right flank of nude mice. The tumors 34 were allowed to grow and were treated when their average size was about 80 mm^3. The drug, bleomycin, 0.5 units dissolved in 0.15 ml of saline, was injected in each mouse intratumorally using a 30 gauge needle. The drug was injected very slowly at the tumor base and the needle direction rotated (fanning technique) for uniform drug distribution in the tumor 34. The mice in the control were only pulsed D−E+; D=Drug, E=Electric field, +/−denote presence or absence, respectively) while those in the treated group were pulsed and received drug (D+E+). A time lapse of 10+/−1 minute was maintained between the drug injection and the application of electric pulse to allow bleomycin to spread uniformly throughout the tumor 34. The electrical pulses, generated by the prototype bipolar square wave pulse generator, were delivered to the tumor 34 through a 6-needle array (see for example, U.S. Pat. No. 5,702,359 herein incorporated by reference), inserted to the depth of the tumor 34. […] The mice in both the control and pulse-treated groups were monitored every day for mortality and sign of any other disease.
FIG. 16 illustrates the results for the experimental and control groups.

The conditions of series [1]: octanol and water; cited from earlier work.

With bleomycin, the tumor volume result in the series with HEp-2 tumors (D+E+ group, versus substantial increase in control group D-E+) is “decreased”. Besides, the “treated mice with complete tumor regression” value in the series on HEp-2 tumors (D+E+ group, bleomycin 0.5 units in 0.15 ml saline intratumorally, bipolar square pulses via 6-needle array 10+/-1 min later, 65 days following treatment, 7/8 mice) is reported as 87.5%. Also, in the series with HEp-2 tumors (D+E+ group, bleomycin 0.5 units intratumorally plus bipolar square pulses, 65 days following treatment, 1/8 mice), the “treated mice with partial regression” value is recorded as 12.5%. Also, in the series on HEp-2 tumors (nearly all the mice treated by both the drug (D) and the pulse (E)), the “tumor reaction to electroporation therapy” value was “severe early edema, and later necrosis of the tumor”. For the same substance, the “extent of partial tumor regression” value with HEp-2 tumors (the 1/8 D+E+ mouse with partial regression) is > 80%. The “log P” value in series [1] is reported as “very negative”.
